Measured values: patent EP0955294B1, “Imidazolyl-alkenoic acid” (SMITHKLINE BEECHAM CORPORATION, priority 1989, dated 1990)
Where two headings read alike, the source gives them in different places.

Experiments:
[1] = tested on: conscious rats made renin-dependent hypertensive; assay: antihypertensive activity in renal artery ligated (renin-dependent hypertensive) rats; type: in vivo; conditions: dose needed to reduce mean arterial pressure by 30 mm Hg
Experimental: (§1) Angiotensin II antagonist activity of the compounds of Formula (I) is assessed by in vitro and in vivo methods. In vitro antagonist activity is determined by the ability of the compounds to compete with ^125I-angiotensin II for binding to vascular angiotensin It receptors and by their ability to antagonize the contractile response to angiotensin II in the isolated rabbit aorta. In vivo activity is evaluated by the efficacy of the compounds to inhibit the pressor response to exogenous angiotensin II in conscious rats and to lower blood pressure in a rat model of […] hypertension.
The antihypertensive activity of the compounds is measured by their ability to reduce mean arterial pressure in conscious rats made renin-dependent hypertensive by ligation of the left renal artery (Cangiano et al., J. Pharmacol. Exp. Ther. 208:310, 1979). Renal artery ligated rats are prepared with indwelling catheters as described above. Seven to eight days following renal artery ligation, the time at which plasma renin levels are highest, the conscious rats are placed in restrainers and mean arterial pressure is continuously recorded prior to and following the administration of the compounds intravenously or orally. The dose of compound needed to reduce mean arterial pressure by 30 mm Hg (IC50) is used as an estimate of potency.

[2] = tested on: pressor response to exogenous angiotensin II; assay: inhibition of pressor response to angiotensin II in conscious rats; type: in vivo; conditions: Rattus norvegicus, dose producing 50% inhibition of the control response to angiotensin II, read-out: IC50 (the source's name)
Experimental: as §1
Rats are prepared with indwelling femoral arterial and venous catheters and a stomach tube (Gellai et al., Kidney Int. 15:419, 1979). Two to three days following surgery the rats are placed in a restrainer and blood pressure is continuously monitored from the arterial catheter with a pressure transducer and recorded on a polygraph. The change in mean arterial pressure in response to intravenous injections of […] angiotensin II is compared at various time points prior to and following the administration of the compounds intravenously or orally at doses of 0.1 to 300 mg/kg. The dose of compound needed to produce 50% inhibition of the control response to angiotensin II (IC50) is used to estimate the potency of the compounds.

IC50 ([1]; i.v.): 1.80 mg/kg
SMILES: CCCCc1ncc(/C=C(\Cc2cccs2)C(=O)O)n1Cc1ccccc1Cl [Example 1, (E)-3-[2-n-Butyl-1-{(2-chlorophenyl)methyl}-1H-imidazol-5-yl]-2-(2-thienyl)methyl-2-propenoic Acid]
ED (30 mm Hg) ([1]; Rattus norvegicus, po, orally, read-out: IC50): 8 mg/kg
ED50 ([2]; iv, i.v.): 3.6 mg/kg
ED50 ([2]; po, orally): 44 mg/kg
